In patent US7396655B2, “Method for enhancing activity of luciferase with fluorescence activity” (Chisso Corporation, priority 2005, dated 2008):
Entries after “also recorded” stand apart in the source; their conditions may differ. Read-outs that look alike come from different tables or passages of the source.

What was measured:
[1] = target: T1, BFP-aq, luciferase with fluorescence activity derived from aequorin (recombinant apoaequorin, SEQ ID NO: 1 with N-terminal Val replaced by Ala-Asn-Ser); complex (Aequorea victoria, UniProt P02592); assay: Luminescence of BFP-aq with coelenterazine and analogs, with/without imidazole (Table 5); format: biochemical; conditions: without imidazole; pH 8.0; coelenterazine without imidazole = 100%
T1 construct: The recombinant apoaequorins encoded by piP-HE is composed of 191 amino acids, whose N-terminus starts from Ala-Asn-Ser-; made in house; host or cells: E. coli strain WA802 (expression vector piP-HE)
T1 sequence (P02592 with tags, fused parts or gaps): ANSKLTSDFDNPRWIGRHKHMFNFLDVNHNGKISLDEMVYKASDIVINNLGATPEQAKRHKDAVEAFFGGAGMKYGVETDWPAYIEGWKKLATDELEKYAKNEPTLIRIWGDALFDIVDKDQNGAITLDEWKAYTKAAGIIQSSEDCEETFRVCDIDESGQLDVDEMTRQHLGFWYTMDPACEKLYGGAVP
Experimental: 200 μl of this solution was placed in five vessels, to each of which 1 μg of the substrate coelenterazine (CTZ) and its four analogs: h-CTZ, cp-CTZ, hcp-CTZ, f-CTZ were added. […] Assuming that the maximum intensity activity (Imax) and initial velocity of BFP-aq luminescence activity in 50 mM Tris-HCl (pH 8.0) was 100%, the effect of the addition of imidazole on luminescence activity was examined.

[2] = target: T1, BFP-aq, luciferase with fluorescence activity derived from aequorin (recombinant apoaequorin, SEQ ID NO: 1 with N-terminal Val replaced by Ala-Asn-Ser); complex; assay: Optimal imidazole concentration for enhancing BFP-aq luminescence (FIG. 5); format: biochemical; conditions: pH 8.0, 25° C., coelenterazine substrate; compared with no imidazole
Experimental: 50 mM Tris-HCl (pH 8.0) containing imidazole at various concentrations (0. 1, 0.3, 1, 3, 10, 30, 60, 100, 150, 200, 250, 300, 400, 500, 600, 700, 800, 900, and 1000 mM) was prepared and pre-warmed at 25° C. The substrate coelenterazine (1 μg) was added to each imidazole-containing solution (200 μl). […] Assuming that the maximum intensity activity (Imax) of BFP-aq luminescence activity in 50 mM Tris-HCl (pH 8.0) is 100%, the relative luminescence activity values are shown in FIG. 5.

BFP-aq [3] = target: T2, BFP-aq (Aequorea victoria, UniProt P07164); conditions: with vs without 150 mM imidazole
Experimental: Then, luminescence activity was measured with the luminometer Luminescencer-PSN AB2200 (manufactured by Atto Co., Ltd.) for 60 seconds. Using the luminescence activity for the first 3 sec of the light-emitting reaction as the initial reaction rate, Km values were determined by the Lineweaver-Burk plot method.

BFP-aq [4] = target: T2, BFP-aq; format: biochemical; set-up: The recombinant apoaequorins encoded by piP-HE is composed of 191 amino acids, whose N-terminus starts from Ala-Asn-Ser-; made in house; host or cells: E. coli strain WA802; conditions: pH 8.0
Experimental: (§1) 50 mM Tris-HCl (pH 8.0) containing imidazole at various concentrations (0. 1, 0.3, 1, 3, 10, 30, 60, 100, 150, 200, 250, 300, 400, 500, 600, 700, 800, 900, and 1000 mM) was prepared and pre-warmed at 25° C. The substrate coelenterazine (1 μg) was added to each imidazole-containing solution (200 μl).
(§2) As a control experiment, the same experiment was conducted using Renilla reniformis luciferase, which contains coelenterazine as luminescent substrate.

[5] = target: T1, BFP-aq, luciferase with fluorescence activity derived from aequorin (recombinant apoaequorin, SEQ ID NO: 1 with N-terminal Val replaced by Ala-Asn-Ser); complex; assay: Light-emitting reaction rate of BFP-aq, Lineweaver-Burk plot (Table 6); format: biochemical; conditions: with or without 150 mM imidazole
BFP-aq [6] = target: T2, BFP-aq; assay: biochemical; format: biochemical; set-up: The recombinant apoaequorins encoded by piP-HE is composed of 191 amino acids, whose N-terminus starts from Ala-Asn-Ser-; made in house; host or cells: E. coli strain WA802
Experimental: Solutions of 50 mM Tris-HCl (pH 8.0), each containing various commercial organic compounds shown in Table 3, were prepared and pre-warmed at 25° C. The substrate coelenterazine (1 μg) was added to the solutions (200 μl) containing each of these compounds.

[7] = target: T3, Renilla reniformis luciferase (Renilla reniformis, UniProt P27652); assay: Control experiment: Renilla reniformis luciferase luminescence with imidazole; format: biochemical; conditions: increasing concentrations of imidazole
T3 construct: histidine tag (N); made in house; host or cells: E. coli Top10
T3 sequence (P27652 1-311): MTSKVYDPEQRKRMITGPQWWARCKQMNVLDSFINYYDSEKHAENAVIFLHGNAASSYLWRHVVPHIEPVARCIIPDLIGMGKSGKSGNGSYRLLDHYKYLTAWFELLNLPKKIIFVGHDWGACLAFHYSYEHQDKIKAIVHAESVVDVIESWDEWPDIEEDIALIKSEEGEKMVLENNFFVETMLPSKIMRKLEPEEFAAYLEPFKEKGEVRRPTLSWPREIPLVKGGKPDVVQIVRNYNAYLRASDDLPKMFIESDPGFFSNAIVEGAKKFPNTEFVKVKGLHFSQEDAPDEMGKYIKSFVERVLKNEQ
Experimental: Renilla reniformis luciferase, a monomeric luciferase (36 kDa) derived from Renilla reniformis, catalyzes oxidation of the substrate coelenterazine to trigger light emission.
50 mM Tris-HCl buffer (200 μl), pH 7.6, was pre-warmed at 25° C., to which the substrate coelenterazine (1 μg/μl) dissolved in ethanol was added. A light-emitting reaction was triggered by adding Renilla reniformis luciferase (1.2 μg). […] The measured values were represented as the maximum intensity (Imax) of luminescence activity.
As a control experiment, the same experiment was conducted using Renilla reniformis luciferase, which contains coelenterazine as luminescent substrate. […] That is, it was shown that the enhancing effect on luminescence activity by the addition of imidazole is specific for BFP-aq.

[8] = target: T4, Renilla reniformis luciferase (recombinant, N-terminal histidine tag) (Renilla reniformis, UniProt P27652); assay: Effect of imidazole on Renilla reniformis luciferase luminescence (control, FIG. 5); format: biochemical; conditions: increasing concentrations of imidazole (0.1 to 1000 mM), pH 8.0, coelenterazine substrate
T4 sequence (P27652 1-311): T3 sequence (P27652 1-311)
Experimental: as §1, §2

[9] = pH 8, read-out: Luminescence activity (%) Imax
[10] = pH 8, read-out: Luminescence activity (%) Initial velocity

| Compound | Relative luminescence activity, Imax [1] [%] | Luminescence activity of BFP-aq with imidazole, in words [2] | Change of Km values (BFP-aq [3]) | Change of Vmax (BFP-aq [3]) | Luminescence activity compared with the system without imidazole (BFP-aq [4]; 150 mM imidazole) | Effect on luminescence activity of BFP-aq (BFP-aq [4]; 30 to 250 mM imidazole) | Km change with imidazole, in words [5] | Vmax change with imidazole, in words [5] | activity at 30000 µM (BFP-aq [6]; [9]) [%] | activity at 150000 µM (BFP-aq [6]; [9]) [%] | activity at 30000 µM (BFP-aq [6]; [10]) [%] | activity at 150000 µM (BFP-aq [6]; [10]) [%] | Enhancement of BFP-aq luminescence activity (Imax), in words (BFP-aq [6]; pH 8.0, Table 4 comparison) | Effect on luminescence activity of Renilla reniformis luciferase [7] | Luminescence activity of Renilla reniformis luciferase with imidazole, in words [8] |
| --- | --- | --- | --- | --- | --- | --- | --- | --- | --- | --- | --- | --- | --- | --- | --- |
| O=c1c(Cc2ccc(O)cc2)nc2c(CC3CCCC3)[nH]c(-c3ccc(O)cc3)cn1-2 [cp-Coelenterazine, cp-coelenterazine] | 54 |  |  |  |  |  |  |  |  |  |  |  |  |  |  |
| c1c[nH]cn1 [Imidazole] |  | enhanced at 30 to 250 mM imidazole; also recorded: more than two-fold of the luminescence activity | no marked changes | doubled | more than two-fold | enhanced | no marked changes were found in the Km values | only Vmax was doubled in the system with imidazole | 148 | 199 | 153 | 205 | marked luminescence activity (Imax) occurs only when 150 mM imidazole was added | remarkably inhibited | remarkably inhibited with increasing concentrations of imidazole |
